# Measurements as given in patent US8927500B2, “Peptidomimetic macrocycles” (Aileron Therapeutics, Inc., priority 2012, dated 2015).
# Where a SMILES comes first, the peptide text is derived from it. Bridges are numbered along the chain shown (N, C = ends). [ ]: non-standard residue; d: D form. Trp(6-Cl) = N[C@@H](Cc1c[nH]c2cc(Cl)ccc12)C(=O)O; R8 = C=CCCCCCC[C@@](C)(N)C(=O)O; hLeu = CC(C)CC[C@H](N)C(=O)O; S5 = C=CCCC[C@](C)(N)C(=O)O
# Columns and labels:
# MDM2 = MDM2 (Homo sapiens, UniProt Q00987); assay: Competitive fluorescence polarization assay for MDM2; format: binding; conditions: competitive FP assay, MDM2; for IC50: read-out: IC50 (MDM2); for Ki: read-out: Ki (MDM2)
# Chain of MDM2 (Q00987 1-125): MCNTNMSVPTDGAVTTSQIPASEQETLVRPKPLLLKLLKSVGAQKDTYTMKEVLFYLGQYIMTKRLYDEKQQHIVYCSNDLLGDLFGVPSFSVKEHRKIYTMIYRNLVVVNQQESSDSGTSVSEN
# MDMX = biological target: T1, MDMX (Homo sapiens, UniProt O15151); assay: Competitive fluorescence polarization assay for MDMX; format: binding; conditions: competitive FP assay; for IC50: read-out: IC50 (MDMX); for Ki: read-out: Ki (MDMX)
# T1 sequence (O15151 1-125): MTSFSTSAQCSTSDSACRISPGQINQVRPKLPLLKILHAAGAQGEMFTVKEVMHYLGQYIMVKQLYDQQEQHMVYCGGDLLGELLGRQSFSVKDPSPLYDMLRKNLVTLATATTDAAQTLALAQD
# Caspase 3 = Caspase 3 detection assay in SJSA1 cells; format: cell-based; conditions: 48 h, Caspase 3 activation over DMSO-treated cells; for caspase 0.3 uM: 0.3 uM peptide; for caspase 1 uM: 1 uM peptide; for caspase 3 uM: 3 uM peptide; for caspase 10 uM: 10 uM peptide; for caspase 30 uM: 30 uM peptide
# SJSA-1 cells = assay: Cell lysis by peptidomimetic macrocycles (LDH release); format: cell-based; conditions: 1 h at 37C
# Method: On the day of the assay, media was exchanged with RPMI 1% FBS media, 90 uL of media per well.
# 10 mM stock solutions of the peptidomimetic macrocycles were prepared in 100% DMSO.
# The negative control (non-lytic) sample was 0.5% DMSO alone and positive control (lytic) samples include 10 uM Melittin and 1% Triton X-100.
# Cell plates were incubated for 1 hour at 37C. After the 1 hour incubation, the morphology of the cells is examined by microscope and then the plates were centrifuged at 1200 rpm for 5 minutes at room temperature. 40 uL of supernatant for each peptidomimetic macrocycle and control sample is transferred to clear assay plates.
Structure (SMILES),IC50 (MDM2),Ki (MDM2),IC50 (MDMX),Ki (MDMX),caspase 0.3 uM (Caspase 3),caspase 1 uM (Caspase 3),caspase 3 uM (Caspase 3),caspase 10 uM (Caspase 3),caspase 30 uM (Caspase 3),6.25 uM % Lysed cells (1 h LDH) (SJSA-1 cells),25 uM % Lysed cells (1 h LDH) (SJSA-1 cells),50 uM % Lysed cells (1 h LDH) (SJSA-1 cells)
"CC(=O)N[C@@H](C)C(=O)N[C@@H](CC(C)C)C(=O)N[C@H](C(=O)N[C@@H](Cc1ccccc1)C(=O)N[C@]1(C)CCCCCCC=CCCC[C@@](C)(C(=O)N[C@@H](CO)C(=O)N[C@@H](C)C(=O)N[C@@H](C)C(=O)N[C@H](C)C(N)=O)NC(=O)[C@H](CC2CCC2)NC(=O)[C@H](CCC(N)=O)NC(=O)[C@H](C)NC(=O)[C@H](Cc2c[nH]c3ccccc23)NC(=O)[C@H](Cc2ccc(O)cc2)NC(=O)[C@H](CCC(=O)O)NC1=O)[C@@H](C)O (single isomer, unassigned) [compound 355]",< 10 nM,< 10 nM,10 to 100 nM,< 10 nM,1,4,11,13,30,0%,0%,0%
"CC(=O)N[C@@H](C)C(=O)N[C@@H](CC(C)C)C(=O)N[C@H](C(=O)N[C@@H](Cc1ccccc1)C(=O)N[C@]1(C)CCCCCCC=CCCC[C@@](C)(C(=O)N[C@@H](CO)C(=O)N[C@@H](C)C(=O)N[C@@H](C)C(=O)N[C@@H](C)C(=O)N[C@H](C)C(N)=O)NC(=O)[C@H](CC2CCC2)NC(=O)[C@H](CCC(N)=O)NC(=O)[C@H](C)NC(=O)[C@H](Cc2c[nH]c3ccccc23)NC(=O)[C@H](Cc2ccc(O)cc2)NC(=O)[C@H](CCC(=O)O)NC1=O)[C@@H](C)O (single isomer, unassigned) [compound 357]",< 10 nM,< 10 nM,10 to 100 nM,< 10 nM,2,7,11,15,23,0%,0%,0%
"CC(=O)N[C@@H](C)C(=O)N[C@@H](C)C(=O)N[C@@H](CC(C)C)C(=O)N[C@H](C(=O)N[C@@H](Cc1ccccc1)C(=O)N[C@]1(C)CCCCCCC=CCCC[C@@](C)(C(=O)N[C@@H](CO)C(=O)N[C@@H](C)C(=O)N[C@@H](C)C(=O)N[C@@H](C)C(=O)N[C@H](C)C(N)=O)NC(=O)[C@H](CC2CCC2)NC(=O)[C@H](CCC(N)=O)NC(=O)[C@H](C)NC(=O)[C@H](Cc2c[nH]c3ccccc23)NC(=O)[C@H](Cc2ccc(O)cc2)NC(=O)[C@H](CCC(=O)O)NC1=O)[C@@H](C)O (single isomer, unassigned) [compound 359]",< 10 nM,< 10 nM,10 to 100 nM,10 to 100 nM,3,9,11,13,23,0%,0%,0%

# More lines, main results first:
IC50 (MDM2),Ki (MDM2),IC50 (MDMX),Ki (MDMX),Structure (SMILES),caspase 0.3 uM (Caspase 3),caspase 1 uM (Caspase 3),caspase 3 uM (Caspase 3),caspase 10 uM (Caspase 3),caspase 30 uM (Caspase 3),6.25 uM % Lysed cells (1 h LDH) (SJSA-1 cells),25 uM % Lysed cells (1 h LDH) (SJSA-1 cells),50 uM % Lysed cells (1 h LDH) (SJSA-1 cells)
10 to 100 nM,< 10 nM,100 to 1000 nM,10 to 100 nM,CC(=O)N[C@@H](CC(C)C)C(=O)N[C@H](C(=O)N[C@@H](Cc1ccccc1)C(=O)N[C@]1(C)CCCCCCC=CCCC[C@@](C)(C(=O)N[C@@H](CO)C(=O)N[C@@H](C)C(=O)N[C@@H](CC(C)C)C(N)=O)NC(=O)[C@H](CC(C)C)NC(=O)[C@H](CCC(N)=O)NC(=O)[C@H](C)NC(=O)[C@H](Cc2c[nH]c3ccccc23)NC(=O)[C@H](Cc2ccc(O)cc2)NC(=O)[C@H](C)NC1=O)[C@@H](C)O [compound 4] (Ac-LTF[R8]AYWAQL[S5]SAL-NH2; staple 4-11),–,–,9,37,35,−2%,1%,2%
100 to 1000 nM,10 to 100 nM,100 to 1000 nM,10 to 100 nM,CC[C@H](C)[C@H](NC(=O)[C@H](C)NC(=O)[C@H](CO)NC(=O)[C@]1(C)CCCC=CCCCCCC[C@@](C)(NC(=O)[C@H](Cc2ccccc2)NC(=O)[C@@H](NC(=O)[C@H](CC(C)C)NC(C)=O)[C@@H](C)O)C(=O)N[C@@H](C)C(=O)N[C@@H](Cc2ccc(O)cc2)C(=O)N[C@@H](Cc2c[nH]c3ccccc23)C(=O)N[C@@H](C)C(=O)N[C@@H](CCC(N)=O)C(=O)N[C@@H](CC(C)C)C(=O)N1)C(N)=O [compound 8] (Ac-LTF[R8]AYWAQL[S5]SAI-NH2; staple 4-11),–,–,1,19,25,−1%,1%,1%
< 10 nM,< 10 nM,100 to 1000 nM,10 to 100 nM,CC(=O)N[C@@H](CC(C)C)C(=O)N[C@H](C(=O)N[C@@H](Cc1ccccc1)C(=O)N[C@]1(C)CCCCCC/C=C/CCC[C@@](C)(C(=O)N[C@@H](CO)C(=O)N[C@@H](C)C(=O)N[C@@H](C)C(N)=O)NC(=O)[C@H](CC(C)C)NC(=O)[C@H](CCC(N)=O)NC(=O)[C@H](C)NC(=O)[C@H](Cc2c[nH]c3cc(Cl)ccc23)NC(=O)[C@H](Cc2ccc(O)cc2)NC(=O)[C@H](C)NC1=O)[C@@H](C)O [compound 99] (Ac-LTF[R8]AY[Trp(6-Cl)]AQL[S5]SAA-NH2; staple (E) 4-11),1,–,7,31,33,1.5%,2%,3.5%
10 to 100 nM,< 10 nM,100 to 1000 nM,10 to 100 nM,CC(=O)N[C@@H](CC(C)C)C(=O)N[C@H](C(=O)N[C@@H](Cc1ccccc1)C(=O)N[C@]1(C)CCCCCC/C=C\CCC[C@@](C)(C(=O)N[C@@H](CO)C(=O)N[C@@H](C)C(=O)N[C@@H](C)C(N)=O)NC(=O)[C@H](CCC(C)C)NC(=O)[C@H](CCC(N)=O)NC(=O)[C@H](C)NC(=O)[C@H](Cc2c[nH]c3ccccc23)NC(=O)[C@H](Cc2ccc(O)cc2)NC(=O)[C@H](C)NC1=O)[C@@H](C)O [compound 114] (Ac-LTF[R8]AYWAQ[hLeu][S5]SAA-NH2; staple (Z) 4-11),1,–,6,28,34,3%,4%,9%
